Data taken from US20230373939A1 (VERTEX PHARMACEUTICALS INCORPORATED, priority 2020, published 2023).
Where two headings read alike, the source gives them in different places.

Biological target: T1, F508del in NIH 3T3 cells (Homo sapiens, UniProt P13569, DEL508-508)
T1 construct: expressed in transfected cells
Test: 3T3 assay: membrane potential optical assay for F508del correction
Type: cell-based
Conditions: for EC50: read-out: 3T3 EC50
In short: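 NIH 3T3 mouse fibroblasts stably expressing F508del were incubated with corrector compounds at a range of concentrations for 16–24 h at 37 °C, then loaded with a voltage-sensing redistribution dye. Channel activity was read as membrane-potential change on FLIPR after a single addition of forskolin with a chloride-free (gluconate) bath creating a Cl⁻ gradient.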

[1] = NIH3T3, NIH 3T3 cells, F508del, read-out: 3T3 Max Activity (%)
[2] = NIH3T3, read-out: 3T3 Max Activity (%)

T1 sequence (P13569 with tags, fused parts or gaps DEL508-508): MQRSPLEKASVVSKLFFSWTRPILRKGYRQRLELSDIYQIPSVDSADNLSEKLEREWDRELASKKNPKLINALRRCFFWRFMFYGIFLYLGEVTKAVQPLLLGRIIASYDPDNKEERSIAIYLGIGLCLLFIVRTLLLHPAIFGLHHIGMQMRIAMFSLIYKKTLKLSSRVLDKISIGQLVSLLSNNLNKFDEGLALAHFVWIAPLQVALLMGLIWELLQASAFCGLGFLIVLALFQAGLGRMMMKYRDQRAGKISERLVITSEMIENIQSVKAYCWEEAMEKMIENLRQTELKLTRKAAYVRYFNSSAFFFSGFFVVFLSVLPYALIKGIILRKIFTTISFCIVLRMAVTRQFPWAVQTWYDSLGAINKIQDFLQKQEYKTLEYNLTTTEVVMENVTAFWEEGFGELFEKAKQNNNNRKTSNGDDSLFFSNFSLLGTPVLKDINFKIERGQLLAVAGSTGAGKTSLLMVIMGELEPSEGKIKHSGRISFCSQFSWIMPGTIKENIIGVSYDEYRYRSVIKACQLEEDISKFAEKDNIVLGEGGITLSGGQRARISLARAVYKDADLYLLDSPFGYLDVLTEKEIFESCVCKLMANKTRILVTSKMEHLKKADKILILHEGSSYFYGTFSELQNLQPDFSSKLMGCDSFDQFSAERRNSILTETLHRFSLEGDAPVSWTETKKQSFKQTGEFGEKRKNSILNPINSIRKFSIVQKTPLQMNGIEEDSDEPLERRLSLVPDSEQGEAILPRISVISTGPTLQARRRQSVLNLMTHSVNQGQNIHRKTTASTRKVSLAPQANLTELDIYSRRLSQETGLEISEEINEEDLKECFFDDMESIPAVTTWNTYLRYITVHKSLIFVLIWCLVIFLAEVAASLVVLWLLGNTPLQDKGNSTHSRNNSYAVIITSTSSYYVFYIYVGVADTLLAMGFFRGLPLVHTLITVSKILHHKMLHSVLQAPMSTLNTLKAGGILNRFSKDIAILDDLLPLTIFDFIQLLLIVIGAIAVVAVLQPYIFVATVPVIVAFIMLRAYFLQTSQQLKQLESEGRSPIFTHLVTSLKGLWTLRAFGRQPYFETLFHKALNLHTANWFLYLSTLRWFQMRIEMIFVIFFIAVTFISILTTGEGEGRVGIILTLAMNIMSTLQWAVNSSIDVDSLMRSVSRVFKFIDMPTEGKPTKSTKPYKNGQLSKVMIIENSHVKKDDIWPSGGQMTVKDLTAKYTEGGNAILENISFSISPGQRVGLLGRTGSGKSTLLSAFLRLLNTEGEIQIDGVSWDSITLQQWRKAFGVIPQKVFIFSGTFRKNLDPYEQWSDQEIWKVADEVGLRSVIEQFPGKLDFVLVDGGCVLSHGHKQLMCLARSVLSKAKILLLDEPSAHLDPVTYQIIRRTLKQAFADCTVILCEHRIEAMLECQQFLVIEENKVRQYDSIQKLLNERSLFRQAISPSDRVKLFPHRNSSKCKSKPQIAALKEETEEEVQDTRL

| SMILES | Emax [1] [%] | EC50 (NIH 3T3 cells, F508del) [µM] | Emax [2] [%] |
| --- | --- | --- | --- |
| Cc1cc(C)c(-n2nc(NS(=O)(=O)c3ccccc3)cc2-c2cccc(Cl)c2)c(C)c1 [Compound 57, N-[5-(3-chlorophenyl)-1-(2,4,6-trimethylphenyl)pyrazol-3-yl]benzenesulfonamide] | > 60 | < 1 | – |
| COCCNC(=O)c1sc(NS(=O)(=O)c2ccccc2)nc1-c1ccccc1 [Compound 35, 2-(benzenesulfonamido)-N-(2-methoxyethyl)-4-phenyl-thiazole-5-carboxamide] | < 30 | – | – |
| O=C(NCCOCC1CC1)c1sc(NS(=O)(=O)c2ccccc2)nc1-c1ccccc1 [Compound 37, 2-(benzenesulfonamido)-N-[2-(cyclopropylmethoxy)ethyl]-4-phenyl-thiazole-5-carboxamide] | < 30 | – | – |
| O=S(=O)(Nc1ncc(Cc2cnccn2)s1)c1ccccc1 [Compound 31, N-[5-(pyrazin-2-ylmethyl)thiazol-2-yl]benzenesulfonamide] | < 30 | – | – |
| COc1ccc(Cl)cc1Nc1nc(-c2sc(NS(=O)(=O)c3ccccc3)nc2C)cs1 [Compound 27, N-[5-[2-(5-chloro-2-methoxy-anilino)thiazol-4-yl]-4-methyl-thiazol-2-yl]benzenesulfonamide] | – | 1 to 3 | 30 to 60 |
| CCCc1oc(NS(=O)(=O)c2ccccc2)nc1-c1ccccc1 [Compound 2, N-(4-phenyl-5-propyl-oxazol-2-yl)benzenesulfonamide] | – | 3 to 30 | 30 to 60 |
| COc1ccccc1Cc1cnc(NS(=O)(=O)c2ccccc2)o1 [Compound 4, N-[5-[(2-methoxyphenyl)methyl]oxazol-2-yl]benzenesulfonamide] | < 30 | – | – |

Now from value to compound, other results behind:

| Emax [1] [%] | EC50 (NIH 3T3 cells, F508del) [µM] | SMILES | Emax [2] [%] |
| --- | --- | --- | --- |
| > 60 | 1 to 3 | O=S(=O)(Nc1cc(Oc2ccccc2)cc(-c2ccccc2)n1)c1ccccc1 [Compound 136, N-(4-phenoxy-6-phenyl-2-pyridyl)benzenesulfonamide] | – |
| 30 to 60 | 1 to 3 | O=S(=O)(Nc1cc(-c2ccccc2)nc(Oc2ccccc2)n1)c1ccccc1 [Compound 130, N-(2-phenoxy-6-phenylpyrimidin-4-yl)benzenesulfonamide] | – |
| > 60 | 1 to 3 | Cc1ccc(-c2nc(NS(=O)(=O)c3ccccc3)ccc2C)c(C)c1 [Compound 150] | – |
| > 60 | 1 to 3 | C=C(C)c1cc(NS(=O)(=O)c2ccccc2)nn1-c1c(C)cc(C)cc1C [Compound 65, N-[5-isopropenyl-1-(2,4,6-trimethylphenyl)pyrazol-3-yl]benzenesulfonamide] | – |
| < 30 | – | O=S(=O)(Nc1nn(Cc2ccccc2)cc1-c1cccc(Cl)c1)c1ccccc1 [Compound 109, N-[1-benzyl-4-(3-chlorophenyl)pyrazol-3-yl]benzenesulfonamide] | – |
| > 60 | 1 to 3 | C/C=C/c1ccc(NS(=O)(=O)c2ccccc2)nc1-c1ccc(C)cc1 [Compound 148] | – |
| > 60 | 1 to 3 | Cc1cc(C)c(-n2nc(NS(=O)(=O)c3ccccc3)cc2-c2ccccc2)c(C)c1 [Compound 68, N-[5-phenyl-1-(2,4,6-trimethylphenyl)pyrazol-3-yl]benzenesulfonamide] | – |
| > 60 | 3 to 30 | Cc1cc(NS(=O)(=O)c2ccccc2)nc(-c2cccc(C)c2C)c1 [Compound 154] | – |
| > 60 | 3 to 30 | Cc1ccc(-c2nc(NS(=O)(=O)c3ccccc3)ccc2C)cc1C [Compound 134, N-[6-(3,4-Dimethylphenyl)-5-methyl-2-pyridyl]benzenesulfonamide] | – |
| > 60 | 1 to 3 | CCCc1ccc(NS(=O)(=O)c2ccccc2)nc1-c1ccc(C)cc1 [Compound 140, N-[5-propyl-6-(p-tolyl)-2-pyridyl]benzenesulfonamide] | – |
| < 30 | – | Cc1ccc(-c2cn(-c3cccc(Cl)c3)nc2NS(=O)(=O)c2ccccc2)cc1 [Compound 93, N-[1-(3-chlorophenyl)-4-(p-tolyl)pyrazol-3-yl]benzenesulfonamide] | – |
